In general, IC50 refers to the point on the concentration scale where inhibition reaches its midpoint.

Data on nine compounds can be found in ChEMBL document CHEMBL1136837, “Unified QSAR approach to antimicrobials. 4. Multi-target QSAR modeling and comparative multi-distance study of the giant components of antiviral drug-drug complex networks” (Bioorg Med Chem, 2009).

The subject of one experiment is Coxsackievirus. The experiment can be described thus: Antiviral activity against Coxsackievirus. The class given is functional, organism-based.
The next experiment concerns Echovirus. The experiment is described as follows: Antiviral activity against Echovirus. The class given is functional, organism-based.
The subject of a further experiment is Human rhinovirus sp. The experiment is described as follows: Antiviral activity against Human rhinovirus. The class given is functional, organism-based.
For another experiment, the system named is Enterovirus. The experiment is described as follows: Antiviral activity against Enterovirus. The format is functional, organism-based.
For a further experiment, the system named is H2N2 subtype. The experiment is described as follows: Antiviral activity against influenza H2N2 virus. The class given is functional, organism-based. The following applies: Influenza A virus.
The next experiment relates to Influenza C virus. The experiment is described as follows: Antiviral activity against Influenza C virus. The format is functional, organism-based.
A further experiment has as its system Influenza A virus. The experiment can be described thus: Antiviral activity against influenza H1N1 virus. The class given is functional, organism-based.
The subject of a further experiment is Influenza B virus. The experiment is described as follows: Antiviral activity against influenza B virus. The format is functional, organism-based.
The next experiment concerns Enterovirus C. The experiment can be described thus: Antiviral activity against Poliovirus. The format is functional, organism-based.
Experiment [1] deals with unidentified influenza virus. The experiment is described as follows: Antiviral activity against influenza virus. The class given is functional, organism-based.
The next experiment has as its system Respirovirus muris. The experiment can be described thus: Antiviral activity against Sendai virus. The format is functional, organism-based.
Experiment [2] concerns Human immunodeficiency virus 1. The experiment is described as follows: Antiviral activity against HIV1. The class given is functional, organism-based.
In another experiment the test system is Hepatitis C virus. The experiment is described as follows: Antiviral activity against Hepatitis C virus c. The class given is functional, organism-based, Hepacivirus hominis.
For another experiment, the system named is Human respirovirus 1. The experiment can be described thus: Antiviral activity against Human parainfluenza virus 1. The format is functional, organism-based.
Experiment [3] deals with Human parainfluenza virus 2. The experiment can be described thus: Antiviral activity against Human parainfluenza virus 2. The format is functional, organism-based. The following applies: Human orthorubulavirus 2.
In the next experiment the test system is Human respirovirus 3. The experiment can be described thus: Antiviral activity against Human parainfluenza virus 3. The class given is functional, organism-based.
For the next experiment, the system named is H5N1 subtype. The experiment can be described thus: Antiviral activity against influenza H5N1 virus. The format is functional, organism-based. The settings on record: Influenza A virus.
The next experiment deals with Influenza A virus H3N2. The experiment can be described thus: Antiviral activity against influenza H3N2 virus. The format is functional, organism-based, H3N2 subtype.
The test system of a further experiment is Camelpox virus. The experiment can be described thus: Antiviral activity against Camelpox virus. The format is functional, organism-based.
A further experiment relates to Monkeypox virus. The experiment can be described thus: Antiviral activity against Monkeypox virus. The class given is functional, organism-based.
For a further experiment, the system named is Human adenovirus 2. The experiment can be described thus: Antiviral activity against Human adenovirus 2. The format is functional, organism-based. The settings on record: Human mastadenovirus C.
For a further experiment, the system named is Cowpox virus. The experiment can be described thus: Antiviral activity against Cowpox virus. The class given is functional, organism-based.
The subject of another experiment is Vaccinia virus. The experiment is described as follows: Antiviral activity against Vaccinia virus. The class given is functional, organism-based, Orthopoxvirus vaccinia. The settings on record: Orthopoxvirus vaccinia.

`CCO/N=C/c1ccc(OCCC2CCN(c3ccc(Cl)nn3)CC2)cc1`: the half-maximal inhibitory concentration (IC50) in the experiment with Coxsackievirus amounted to 0.825 µM; in the experiment on Echovirus it was 0.067 µM; with Human rhinovirus sp., 0.026 µM; in the experiment on Enterovirus, 0.001 µM.

Turning to `NC(=O)c1nc(F)cnc1O`, the IC50 in the experiment on H2N2 subtype was 0.048 µM; in the experiment on Influenza C virus it was 0.044 µM; in the experiment on Influenza A virus, 0.16 µM; in the experiment on Influenza B virus, 0.089 µM.

Turning to `O=c1n(Cc2nc3ccccc3n2CCCCO)c2cnccc2n1C1CC1`, the IC50 with Enterovirus C was 200 µM; in experiment [1], 200 µM; in the experiment on Human rhinovirus sp., 200 µM; in the experiment with Respirovirus muris it was 25 µM; in experiment [2], 200 µM.

Compound `C=C[C@@H]1C[C@]1(NC(=O)[C@@H]1C[C@@H](Oc2cc(-c3ccccc3)nc3cc(OC)ccc23)CN1C(=O)[C@H](CC(C)C)NC(=O)OC(C)(C)C)C(=O)O` returned an IC50 in the experiment with Hepatitis C virus of 0.492 µM.

With `C/C=C\[C@@H]1C[C@H](C(=O)O)N[C@H]1[C@@H](NC(C)=O)[C@](C)(CCC)OC`, the IC50 in the experiment with Human respirovirus 1 is 14.1 µM.

For `CC(C)C(=O)N[C@H]1[C@H]([C@H](O)[C@H](O)CO)OC(C(=O)O)=C[C@@H]1NS(=O)(=O)C(Cl)Cl`, the IC50 in experiment [3] is 1.9 µM; in the experiment on Human respirovirus 3, 2 µM; with Human respirovirus 1 it was 1.2 µM; with Respirovirus muris it was 1.8 µM.

On to `CC(C)C(=O)N[C@H]1[C@H]([C@H](O)[C@H](O)CO)OC(C(=O)O)=C[C@@H]1N=[N+]=[N-]`, for which the IC50 in experiment [3] was 2.2 µM; in the experiment on Respirovirus muris, 0.1 µM.

In the case of `CCOC(=O)C1=C[C@@H](OC(CC)CC)[C@H](NC(C)=O)[C@@H](N)C1` [OSELTAMIVIR], the IC50 worked out at 1.45 µM with H2N2 subtype; 34 µM with H5N1 subtype; 45 µM in experiment [1]; 0.26 µM in the experiment on Influenza A virus H3N2; 2.5 µM with Influenza A virus; 2.1 µM in the experiment on Influenza B virus.

Consider `NC(=O)c1ncn([C@@H]2O[C@H](CO)[C@@H](O)[C@H]2O)n1` [RIBAVIRIN], for which the IC50 was found to be 13.8 µM in the experiment on H2N2 subtype; 215 µM in the experiment with Camelpox virus; 145 µM in the experiment with Monkeypox virus; 100 µM in the experiment on Human adenovirus 2; 410 µM with Cowpox virus; 20 µM in the experiment on Influenza A virus H3N2. The IC50 in the experiment with Influenza A virus was found to be 7.7 µM; in the experiment with Influenza B virus, 19 µM; in the experiment with Vaccinia virus it was 281 µM.
